Patent US20230167088A1, “1-PYRAZINYLPYRAZOLYL-3-OXYALKYL ACIDS AND THEIR DERIVATIVES, AND THEIR USE FOR CONTROL OF UNDESIRED PLANT GROWTH” (BAYER AKTIENGESELLSCHAFT, priority 2020, published 2023)

Assays:
[1] = test system: STEME; assay: Herbicidal pre-emergence action 2b (doubly sown, 1280 g/ha); type: in vivo, Stellaria media; settings: doubly sown pots, dosage 1280 g/ha, visual scoring after about 3 weeks
Method in brief: (§1)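 Seeds are placed in sandy loam and covered, then the formulated compound is applied to the covering soil in water equivalent to 600 litres per hectare with 0.5% additive. Pots stay in the greenhouse under good growth conditions. Activity is rated visually as a percentage of untreated controls after about three weeks.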

[2] = test system: SETVI; assay: Herbicidal post-emergence action 1a (greenhouse pots, visual rating); type: in vivo, Setaria viridis; settings: rated visually about 3 weeks after treatment, 100% = plants have died, 0% = like control plants
Method in brief: (§2)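 Weeds and crops sown in sandy loam in greenhouse pots were sprayed post-emergence at the one-leaf stage (2–3 weeks after sowing) with WP or EC formulations plus 0.5% additive at 600 l/ha water, 320 and/or 80 g/ha. About 3 weeks later damage was rated visually against untreated controls (0% = no effect, 100% = dead).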

[3] = test system: POLCO; assay: as above; type: in vivo, Polygonum convolvulus; settings: visual rating about 3 weeks after treatment
Method in brief: as §2

[4] = test system: ECHCG; assay: Herbicidal post-emergence action 1b (twin sowing, 1280 g/ha); type: in vivo, Echinochloa crus-galli; settings: dosage 1280 g/ha, visual rating about 3 weeks after treatment
Method in brief: (§3)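 Post-emergence foliar spray on one-leaf weeds grown two species per pot in sandy loam; ~3 weeks later, visual rating from 0% (as control) to 100% (plants died).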

[5] = test system: STEME; assay: Herbicidal post-emergence action 1a (greenhouse pots, visual rating); type: in vivo, Stellaria media; settings: rated visually about 3 weeks after treatment, 100% = plants have died, 0% = like control plants
Method in brief: as §2

[6] = test system: SETVI; assay: Herbicidal pre-emergence action 2a (greenhouse pots, visual scoring); type: in vivo, Setaria viridis; settings: dosage 320 g/ha, visual scoring after about 3 weeks vs untreated controls
Method in brief: (§4)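 Visual percent rating, ~3 weeks after treatment, untreated pots as reference (0% = control-like, 100% = killed). Application: formulated compound on soil surface over seeds, 320 g/ha and/or 80 g/ha.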

[7] = test system: AMARE; assay: as above; type: in vivo, Amaranthus retroflexus; settings: dosage 320 g/ha, visual scoring after about 3 weeks vs untreated controls
Method in brief: as §4

[8] = test system: STEME; assay: as above; type: in vivo, Stellaria media; settings: dosage 320 g/ha, visual scoring after about 3 weeks vs untreated controls
Excerpt: (§5) [table] a) Seeds of monocotyledonous and dicotyledonous weed plants and crop plants are placed in plastic or organic plant pots and covered with soil. The compounds of the invention, formulated in the form of wettable powders (WP) or as emulsion concentrates (EC), are then applied onto the surface of the covering soil as aqueous suspension or emulsion with addition of 0.5% additive at a water application rate of 600 1/ha (converted). After the treatment, the pots are placed in a greenhouse and kept under good growth conditions for the trial plants. After about 3 weeks, the effect of the preparations is scored visually in comparison with untreated controls as percentages. For example, 100% activity=the plants have died, 0% activity=like control plants. Tables B1 to B15 below show the effects of selected compounds of the general formula (I) according to Tables 1 and 2 on various harmful plants and an application rate corresponding to 320 g/ha and/or 80 g/ha, which were obtained by the experimental procedure mentioned above.

[9] = test system: MATIN; assay: Herbicidal post-emergence action 1b (twin sowing, 1280 g/ha); type: in vivo, Matricaria inodora; settings: dosage 1280 g/ha, visual rating about 3 weeks after treatment
Method in brief: as §3

[10] = test system: ECHCG; assay: Herbicidal pre-emergence action 2b (doubly sown, 1280 g/ha); type: in vivo, Echinochloa crus-galli; settings: doubly sown pots, dosage 1280 g/ha, visual scoring after about 3 weeks
Method in brief: as §1

[11] = test system: VERPE; assay: Herbicidal post-emergence action 1a (greenhouse pots, visual rating); type: in vivo, Veronica persica; settings: visual rating about 3 weeks after treatment
Method in brief: as §2

[12] = test system: ALOMY; assay: Herbicidal pre-emergence action 2a (greenhouse pots, visual scoring); type: in vivo, Alopecurus myosuroides; settings: dosage 320 g/ha, visual scoring after about 3 weeks
Method in brief: as §4

[13] = test system: HORMU; assay: as above; type: in vivo, Hordeum murinum; settings: dosage 320 g/ha, visual scoring after about 3 weeks vs untreated controls
Excerpt: as §5

[14] = test system: ALOMY; assay: Herbicidal post-emergence action 1a (greenhouse pots, visual rating); type: in vivo, Alopecurus myosuroides; settings: rated visually about 3 weeks after treatment, 100% = plants have died, 0% = like control plants
Method in brief: as §2

[15] = test system: POLCO; assay: Herbicidal pre-emergence action 2a (greenhouse pots, visual scoring); type: in vivo, Polygonum convolvulus; settings: dosage 320 g/ha, visual scoring after about 3 weeks vs untreated controls
Method in brief: as §4

[16] = test system: PHBPU; assay: as above; type: in vivo, Pharbitis purpurea; settings: dosage 320 g/ha, visual scoring after about 3 weeks vs untreated controls
Method in brief: as §4

[17] = test system: ABUTH; assay: Herbicidal post-emergence action 1b (twin sowing, 1280 g/ha); type: in vivo, Abutilon theophrasti; settings: dosage 1280 g/ha, visual rating about 3 weeks after treatment
Method in brief: as §3

[18] = test system: MATIN; assay: Herbicidal pre-emergence action 2a (greenhouse pots, visual scoring); type: in vivo, Matricaria inodora; settings: dosage 320 g/ha, visual scoring after about 3 weeks vs untreated controls
Method in brief: as §4

[19] = test system: DIGSA; assay: Herbicidal pre-emergence action 2b (doubly sown, 1280 g/ha); type: in vivo, Digitaria sanguinalis; settings: doubly sown pots, dosage 1280 g/ha, visual scoring after about 3 weeks
Method in brief: as §1

[20] = test system: DIGSA; assay: Herbicidal post-emergence action 1b (twin sowing, 1280 g/ha); type: in vivo, Digitaria sanguinalis; settings: dosage 1280 g/ha, visual rating about 3 weeks after treatment
Method in brief: as §3

| SMILES | Pre-emergence action at 1280 g/ha against STEME in % [1] | Post-emergence action against SETVI in % ([2]; Dosage 320 g/ha) | Post-emergence action against POLCO in % ([3]; dosage 320 g/ha) | Post-emergence action at 1280 g/ha against ECHCG in % [4] | Post-emergence action against STEME in % ([5]; Dosage 320 g/ha) | Pre-emergence action against SETVI in % [6] | Pre-emergence action against AMARE in % [7] | Post-emergence action at 1280 g/ha against MATIN in % [9] | Pre-emergence action at 1280 g/ha against ECHCG in % [10] | Post-emergence action against VERPE in % ([11]; dosage 80 g/ha) | Post-emergence action against VERPE in % ([11]; dosage 320 g/ha) | Pre-emergence action against ALOMY in % [12] | Post-emergence action against ALOMY in % ([14]; Dosage 80 g/ha) | Post-emergence action against ALOMY in % ([14]; Dosage 320 g/ha) | Pre-emergence action against POLCO in % [15] | Pre-emergence action against PHBPU in % [16] | Post-emergence action against SETVI in % ([2]; Dosage 80 g/ha) | Post-emergence action at 1280 g/ha against ABUTH in % [17] | Pre-emergence action against MATIN in % [18] | Pre-emergence action at 1280 g/ha against DIGSA in % [19] | further results |
| --- | --- | --- | --- | --- | --- | --- | --- | --- | --- | --- | --- | --- | --- | --- | --- | --- | --- | --- | --- | --- | --- |
| COC(=O)C(C)Oc1nn(-c2cnccn2)c(-c2ccc(F)nc2)c1Br (racemic) [Example I-12] | 100% | 80% | 90% | 90% | 90% | 100% | 100% | 90% | 100% | 80% | 90% | 100% | 90% | 90% | 90% | – | – | – | – | – | Post-emergence action against STEME in % ([5]; Dosage 80 g/ha): 80%; Pre-emergence action against STEME in % [8]: 90%; Pre-emergence action against HORMU in % [13]: 90% |
| C[C@@H](Oc1nn(-c2cnccn2)c(-c2cccc(F)c2)c1Br)C(=O)O [Example I-48] | 100% | – | 100% | 100% | – | 100% | 100% | 100% | 100% | – | – | 100% | 90% | – | 100% | 90% | 80% | 90% | 100% | 100% | – |
| COC(=O)[C@@H](C)Oc1nn(-c2cnccn2)c(-c2ccc(F)nc2)c1Cl [Example I-36] | 100% | 100% | 100% | 100% | – | 100% | 100% | 90% | 90% | – | 90% | 100% | – | 100% | 100% | – | – | 90% | 80% | 100% | Post-emergence action at 1280 g/ha against DIGSA in % [20]: 100%; Post-emergence action against POLCO in % ([3]; dosage 80 g/ha): 90% |
| COC(=O)COc1nn(-c2cnccn2)c(-c2ccc(F)nc2)c1Br [Example I-11] | 100% | 90% | 90% | 90% | – | 100% | 90% | – | 90% | 90% | 90% | 100% | – | 100% | 90% | 90% | – | 90% | 90% | 90% | Post-emergence action at 1280 g/ha against DIGSA in % [20]: 100% |
| C[C@H](Oc1nn(-c2cnccn2)c(-c2cncc(F)c2)c1Br)C(=O)O [Example I-37] | 100% | 90% | 100% | 100% | – | 100% | 90% | 90% | 100% | 80% | 90% | 100% | 90% | 100% | 100% | – | 90% | 90% | 90% | 100% | Post-emergence action at 1280 g/ha against DIGSA in % [20]: 100% |
| CCOC(=O)COc1nn(-c2cnccn2)c(-c2ccccc2)c1Br [Example I-01] | 100% | – | 80% | – | 90% | – | 100% | 90% | 100% | 80% | 90% | 80% | – | 90% | 80% | – | – | – | 90% | – | Post-emergence action against POLCO in % ([3]; dosage 80 g/ha): 80%; Pre-emergence action against STEME in % [8]: 80% |
| COC(=O)COc1nn(-c2cnccn2)c(-c2ccc(F)c(F)c2)c1Br [Example I-15] | – | 90% | – | – | – | 100% | 100% | – | – | 90% | 90% | 90% | 80% | 80% | – | 90% | 90% | – | 100% | – | – |
| CCOC(=O)COc1nn(-c2cnccn2)c(-c2ccc(F)nc2)c1Br [Example I-52, ethyl {[4-bromo-5-(6-fluoropyridin-3-yl)-1-(pyrazin-2-yl)-1H-pyrazol-3-yl]oxy}acetate] | 100% | – | 80% | – | – | 90% | 100% | 90% | – | – | 90% | 90% | 80% | 90% | 80% | 100% | – | – | 90% | 100% | – |
| COC(=O)C(C)Oc1nn(-c2cnccn2)c(-c2ccnc(F)c2)c1Br (racemic) [Example I-10] | 100% | 80% | – | – | 90% | 100% | 90% | – | – | 80% | 90% | 100% | 90% | 90% | – | – | – | – | – | – | Pre-emergence action against HORMU in % [13]: 80% |
